Data: ChEMBL document CHEMBL6078630, “Design, synthesis, and bioactivity investigation of novel cyclic lipopeptide antibiotics targeting top-priority multidrug-resistant gram-negative bacteria” (Eur J Med Chem, 2024)
≈ marks a conversion by molar mass, not a printed value. Bridge positions count the residues as written; N and C are the ends. Square brackets hold non-standard residues; d marks the D form. Peptide text beside a SMILES is read from it. * marks the point of attachment. Octanoyl = CCCCCCCC(=O)*; Dab = NCC[C@H](N)C(=O)O

Tests used:
Pseudomonas aeruginosa [1] = assay: Antibacterial activity against Pseudomonas aeruginosa ATCC 27853 assessed as inhibition of bacterial growth incubated for 16 to 20 hrs by CLSI protocol based broth microdilution method; assay type: functional; details: time 16-20 hrs
Pseudomonas aeruginosa [2] = assay: Antibacterial activity against carbapenem-resistant Pseudomonas aeruginosa clinical isolate 19-3 assessed as inhibition of bacterial growth incubated for 16 to 20 hrs by CLSI protocol based broth microdilution method; assay type: functional; details: time 16-20 hrs
Klebsiella pneumoniae [3] = assay: Antibacterial activity against carbapenem-resistant Klebsiella pneumoniae ATCC BAA-1705 assessed as inhibition of bacterial growth incubated for 16 to 20 hrs by CLSI protocol based broth microdilution method; assay type: functional; details: time 16-20 hrs
Escherichia coli [4] = assay: Antibacterial activity against carbapenem-resistant Escherichia coli ATCC BAA-2340 assessed as inhibition of bacterial growth incubated for 16 to 20 hrs by CLSI protocol based broth microdilution method; assay type: functional; details: time 16-20 hrs
[5] = Renal cytotoxicity against HK-2 cells incubated for 72 hrs by CCK8 assay; assay type: toxicity, cell-based; details: human
Acinetobacter baumannii [6] = assay: Antibacterial activity against Acinetobacter baumannii NCTC 13304 (OXA-27) assessed as inhibition of bacterial growth incubated for 16 to 20 hrs by CLSI protocol based broth microdilution method; assay type: functional; details: time 16-20 hrs
Klebsiella pneumoniae [7] = assay: Antibacterial activity against carbapenem-resistant Klebsiella pneumoniae clinical isolate KPN+19-15 assessed as inhibition of bacterial growth incubated for 16 to 20 hrs by CLSI protocol based broth microdilution method; assay type: functional; details: time 16-20 hrs
Escherichia coli [8] = assay: Antibacterial activity against Escherichia coli ATCC BAA-2523 assessed as inhibition of bacterial growth incubated for 16 to 20 hrs by CLSI protocol based broth microdilution method; assay type: functional; details: time 16-20 hrs
Acinetobacter baumannii [9] = assay: Antibacterial activity against carbapenem-sensitive Acinetobacter baumannii clinical isolate 19-1 assessed as inhibition of bacterial growth incubated for 16 to 20 hrs by CLSI protocol based broth microdilution method; assay type: functional; details: time 16-20 hrs

| SMILES | MIC (Pseudomonas aeruginosa [1]) [µg/mL] | MIC (Pseudomonas aeruginosa [2]) [µg/mL] | MIC (Klebsiella pneumoniae [3]) [µg/mL] | MIC (Escherichia coli [4]) [µg/mL] | IC50 at 72 h [5] [µg/mL] | MIC (Acinetobacter baumannii [6]) [µg/mL] | MIC (Klebsiella pneumoniae [7]) [µg/mL] | MIC (Escherichia coli [8]) [µg/mL] | MIC (Acinetobacter baumannii [9]) [µg/mL] |
| --- | --- | --- | --- | --- | --- | --- | --- | --- | --- |
| CC(C)CCCCC(=O)N[C@@H](CCN)C(=O)N[C@H](C(=O)N[C@@H](CCCCN)C(=O)N[C@H]1CCNC(=O)[C@H]([C@@H](C)O)NC(=O)[C@H](CCN)NC(=O)[C@H](CCN)NC(=O)[C@H]([C@@H](C)O)NC(=O)[C@@H](Cc2ccccc2)NC(=O)[C@H](CCN)NC1=O)[C@@H](C)O | > 64 | 4 (≈ 3.32 µM) | 0.25 (≈ 0.207 µM) | 0.25 (≈ 0.207 µM) | > 500 | 1 (≈ 0.83 µM) | 0.25 (≈ 0.207 µM) | 0.25 (≈ 0.207 µM) | 2 (≈ 1.66 µM) |
| CC(C)C[C@@H]1NC(=O)[C@H](CCN)NC(=O)[C@@H](NC(=O)[C@@H](CO)NC(=O)[C@@H](NC(=O)[C@H](CCN)NC(=O)CCCCCCC(=O)O)[C@@H](C)O)CCNC(=O)[C@H]([C@@H](C)O)NC(=O)[C@H](CCN)NC(=O)[C@H](CCN)NC(=O)[C@H]([C@@H](C)O)NC1=O | 8 (≈ 6.89 µM) | 8 (≈ 6.89 µM) | 0.5 (≈ 0.431 µM) | 0.125 (≈ 0.108 µM) | > 500 | 0.25 (≈ 0.215 µM) | 0.25 (≈ 0.215 µM) | 0.125 (≈ 0.108 µM) | 0.5 (≈ 0.431 µM) |
| CC(C)CCCCC(=O)N[C@@H](CCN)C(=O)N[C@H](C(=O)N[C@H](CO)C(=O)N[C@H]1CCNC(=O)[C@H]([C@@H](C)O)NC(=O)[C@H](CCN)NC(=O)[C@H](CCN)NC(=O)[C@H](CC(C)C)NC(=O)[C@H](Cc2ccccc2)NC(=O)[C@H](CCN)NC1=O)[C@@H](C)O | 1 (≈ 0.85 µM) | 2 (≈ 1.7 µM) | 0.125 (≈ 0.106 µM) | ≤ 0.03 | > 500 | ≤ 0.03 | ≤ 0.03 | 0.06 (≈ 0.051 µM) | ≤ 0.03 |
| CCCCCCCC(=O)N[C@@H](CCN)C(=O)N[C@H](C(=O)N[C@@H](CCN)C(=O)N[C@H]1CCNC(=O)[C@H]([C@@H](C)O)NC(=O)[C@H](CCN)NC(=O)[C@H](CCN)NC(=O)[C@H]([C@@H](C)O)NC(=O)[C@@H](CCC)NC(=O)[C@H](CCN)NC1=O)[C@@H](C)O [listing 1 of 2 here] |  |  |  |  | > 500 |  |  |  |  |
| CCCCCCCC(=O)N[C@@H](CCN)C(=O)N[C@H](C(=O)N[C@@H](CCN)C(=O)N[C@H]1CCNC(=O)[C@H]([C@@H](C)O)NC(=O)[C@H](CCN)NC(=O)[C@H](CCN)NC(=O)[C@H]([C@@H](C)O)NC(=O)[C@@H](CCC)NC(=O)[C@H](CCN)NC1=O)[C@@H](C)O [listing 2 of 2 here] | 1 (≈ 0.885 µM) | 1 (≈ 0.885 µM) | 2 (≈ 1.77 µM) | 0.5 (≈ 0.443 µM) |  | 4 (≈ 3.54 µM) | 0.5 (≈ 0.443 µM) | 0.25 (≈ 0.221 µM) | 4 (≈ 3.54 µM) |
| CC(C)CCCCC(=O)N[C@@H](CCN)C(=O)N[C@H](C(=O)N[C@H](CCCCN)C(=O)N[C@H]1CCNC(=O)[C@H]([C@@H](C)O)NC(=O)[C@H](CCN)NC(=O)[C@H](CCN)NC(=O)[C@H]([C@@H](C)O)NC(=O)[C@@H](Cc2ccccc2)NC(=O)[C@H](CCN)NC1=O)[C@@H](C)O | 32 (≈ 26.5 µM) | 4 (≈ 3.32 µM) | 0.125 (≈ 0.104 µM) | 1 (≈ 0.83 µM) | > 500 | 0.5 (≈ 0.415 µM) | 0.25 (≈ 0.207 µM) | 0.125 (≈ 0.104 µM) | 0.5 (≈ 0.415 µM) |
| CC(C)CCCCC(=O)N[C@@H](CCN)C(=O)N[C@H](C(=O)N[C@@H](CO)C(=O)N[C@H]1CCNC(=O)[C@H]([C@@H](C)O)NC(=O)[C@H](CCN)NC(=O)[C@H](CCN)NC(=O)[C@H]([C@@H](C)O)NC(=O)[C@@H](CC(C)C)NC(=O)[C@H](CCN)NC1=O)[C@@H](C)O | > 64 | 64 (≈ 56.6 µM) | 4 (≈ 3.54 µM) | 2 (≈ 1.77 µM) | > 500 | 8 (≈ 7.08 µM) | 4 (≈ 3.54 µM) | 2 (≈ 1.77 µM) | 8 (≈ 7.08 µM) |
| C[C@@H](O)[C@@H]1NC(=O)[C@H](CCN)NC(=O)[C@H](CCN)NC(=O)[C@H]([C@@H](C)O)NC(=O)[C@H](Cc2ccccc2)NC(=O)[C@H](CCN)NC(=O)[C@@H](NC(=O)[C@@H](CO)NC(=O)[C@@H](NC(=O)[C@H](CCN)NC(=O)CCCCCCC(=O)O)[C@@H](C)O)CCNC1=O | 4 (≈ 3.35 µM) | 4 (≈ 3.35 µM) | 0.06 (≈ 0.0502 µM) | ≤ 0.03 | > 500 | ≤ 0.03 | ≤ 0.03 | ≤ 0.03 | 0.06 (≈ 0.0502 µM) |
| CCCCCCCC(=O)N[C@@H](CCN)C(=O)N[C@H](C(=O)N[C@@H](CCN)C(=O)N[C@H]1CCNC(=O)[C@H]([C@@H](C)O)NC(=O)[C@H](CCN)NC(=O)[C@H](CCN)NC(=O)[C@H]([C@@H](C)O)NC(=O)[C@@H](Cc2ccccc2)NC(=O)[C@H](CCN)NC1=O)[C@@H](C)O (Octanoyl-[Dab]T[Dab][Dab][Dab][dF]T[Dab][Dab]T; lactam 4-C) |  |  |  |  | > 500 |  |  |  |  |
